Structures can show the parent of a compound that is named as a salt.
Target: Glycogen synthase kinase-3 beta (Homo sapiens, UniProt P49841)
Test: concentration-response blocking of human GSK3B – biochemical, luminescence, cell-free homogeneous, retest, dose response (AID 434954)

Chain of Glycogen synthase kinase-3 beta (P49841 whole entry): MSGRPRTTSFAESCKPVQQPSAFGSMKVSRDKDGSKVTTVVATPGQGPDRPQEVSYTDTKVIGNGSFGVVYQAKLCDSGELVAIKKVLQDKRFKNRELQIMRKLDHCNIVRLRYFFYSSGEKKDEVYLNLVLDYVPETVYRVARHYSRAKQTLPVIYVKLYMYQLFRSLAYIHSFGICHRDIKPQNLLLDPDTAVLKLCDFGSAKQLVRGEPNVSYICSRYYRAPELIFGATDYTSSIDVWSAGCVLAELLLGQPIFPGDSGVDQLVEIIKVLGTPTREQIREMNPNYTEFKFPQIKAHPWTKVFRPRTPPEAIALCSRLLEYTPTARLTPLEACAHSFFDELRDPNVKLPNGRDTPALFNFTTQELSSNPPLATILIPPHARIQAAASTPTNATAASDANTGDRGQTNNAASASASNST

Structure (SMILES)	EC50 [µM]
CCOCCCn1c(=NC(C)=O)c(C#N)cc2c(=O)n3cccc(C)c3nc21 [SMR000436200]	> 300
O=C(/[O+]=N/[CH-]c1ccc(N2CCCCC2)c([N+](=O)[O-])c1)c1ccc(Cl)cc1Cl [MLS000326612]	> 300
COc1cccc(/C=C2\Sc3ccc(C(=O)NCC4CCCO4)cc3N(C)C2=O)c1 (centres undefined) [SMR000622267]	> 300
CCCOc1ccc(-c2c(C(=O)NN=C(C)c3ccco3)nnn2-c2nonc2N)cc1	16.6
CCCCc1cc(=O)oc2cc(C)cc(O)c12	> 300
COc1cccc(N(C(=O)C[S+]([O-])CC(=O)Nc2ccc(F)cc2)C(C(=O)NC2CCCCC2)c2cccs2)c1 (centres undefined) [MLS000566826]	> 300
CN1CCN(c2nc(-c3ccccc3)nc(-c3ccccc3)c2C#N)CC1 [4-(4-methylpiperazin-1-yl)-2,6-diphenyl-pyrimidine-5-carbonitrile]	> 300
COc1ccc2c(c1)-c1c(ssc1=S)C(C)(C)N2S(=O)(=O)c1ccc(C)cc1 [8-methoxy-4,4-dimethyl-5-(4-methylphenyl)sulfonyl-[1,2]dithiolo[3,4-c]quinoline-1-thione]	> 300
Cc1ccc(-c2nn(-c3ccccc3)cc2C=NNC(=O)c2ccc(Br)o2)cc1	> 300
COC(=O)c1ccc(Nc2nc(-c3ccncc3)nc3ccccc23)cc1 [4-[(2-pyridin-4-yl-4-quinazolinyl)amino]benzoic acid methyl ester]	> 300
CCN1C(=O)/C(=N\NC(=O)C(O)c2ccccc2)c2ccccc21 (centres undefined) [SMR000414657]	32.4
C[C@@H]1O[C@@H](Oc2c(-c3cc(O)c(O)c(O)c3)oc3cc(O)cc(=O)c-3c2O)[C@H](O)[C@H](O)[C@H]1O [3-[(2S,3R,4R,5R,6S)-6-methyl-3,4,5-tris(oxidanyl)oxan-2-yl]oxy-5,7-bis(oxidanyl)-2-[3,4,5-tris(oxidanyl)phenyl]chromen-4-one]	> 300
CCOC(=O)c1cnc2ccc(Cl)cc2c1Nc1ccc(S(=O)(=O)Nc2ncccn2)cc1 [ethyl 6-chloro-4-[4-(pyrimidin-2-ylsulfamoyl)anilino]quinoline-3-carboxylate]	108
NC(=O)c1c(NC(=O)CN2CCCC2)sc2c1CCCC2 [2-(2-Pyrrolidin-1-yl-acetylamino)-4,5,6,7-tetrahydro-benzo[b]thiophene-3-carboxylic acid amide]	> 300
COc1cc(NC(=O)COC(=O)CCc2cc(OC)c(OC)c(OC)c2)cc(OC)c1 [SMR000349752]	> 300
O=C(NCC(c1ccco1)N1CCc2ccccc21)c1c(F)cccc1F (centres undefined) [N-[2-(2,3-dihydroindol-1-yl)-2-(furan-2-yl)ethyl]-2,6-bis(fluoranyl)benzamide]	> 300
Cc1csc2c(=O)n(CCO)c(=O)[nH]c12 [MLS000861875]	> 300
Cn1c(=O)c2[nH]c(CN(Cc3ccccc3)Cc3ccccc3)nc2n(C)c1=O [MLS000081398]	> 300
Cc1cc(NC(=O)COc2cccnc2[N+](=O)[O-])no1 [N-(5-methyl-1,2-oxazol-3-yl)-2-(2-nitropyridin-3-yl)oxyacetamide]	> 300
COCCn1c(SCC(=O)NC(=O)NC(C)C)nc2ccccc21 [2-[1-(2-methoxyethyl)benzimidazol-2-yl]sulfanyl-N-(propan-2-ylcarbamoyl)ethanamide]	> 300
CCOC(=O)c1nnn(-c2nonc2N)c1-c1ccc(OCC)cc1 [1-(4-amino-1,2,5-oxadiazol-3-yl)-5-(4-ethoxyphenyl)-4-triazolecarboxylic acid ethyl ester]	20
Cc1c(NC(=O)CSc2nnc3sc4ccccc4n23)c(=O)n(-c2ccccc2)n1C [MLS000060665]	> 300

Structure (SMILES)	EC50 [µM]
CC(C)CC(=O)Nc1ccccc1-c1nnn(CC(=O)N2CCc3ccccc3C2)n1 [SMR000122537]	> 300
O=C(COC(=O)C1CCN(/C=C/C(=O)C(F)(F)F)CC1)Nc1ccccc1 [MLS000390182]	> 300
CN1CCc2c(sc3c2c(=O)n(-c2cccc(Cl)c2)c2nncn32)C1 [MLS000084041]	> 300
CCOC(=O)CC(=O)CSc1ccc2nnc(-c3ccc(C)cc3)n2n1 [3-keto-4-[[3-(p-tolyl)-[1,2,4]triazolo[4,3-b]pyridazin-6-yl]thio]butyric acid ethyl ester]	14.3
COc1ccc(/C=C/C(=O)NC2CCN(Cc3ccccc3)CC2)cc1OC [(E)-N-(1-benzylpiperidin-4-yl)-3-(3,4-dimethoxyphenyl)prop-2-enamide]	> 300
COc1ccccc1Oc1coc2c(CN(C)C)c(O)ccc2c1=O [8-[(dimethylamino)methyl]-7-hydroxy-3-(2-methoxyphenoxy)chromen-4-one]	> 300
Nc1nc(NCc2ccccc2)nc(Nc2cccc(F)c2)c1[N+](=O)[O-] [N-Benzyl-N'-(3-fluoro-phenyl)-5-nitro-pyrimidine-2,4,6-triamine]	108
O=C(CSc1nnc(-c2cccnc2)n1-c1ccccc1)Nc1ccc2c(c1)OCO2 [MLS000050858]	> 300
COc1cccc(C2C(C(=O)OCc3ccccc3)C(C)=Nc3ncnn32)c1OC (centres undefined) [(phenylmethyl) 7-(2,3-dimethoxyphenyl)-5-methyl-1,7-dihydro-[1,2,4]triazolo[1,5-a]pyrimidine-6-carboxylate]	3.82
Nc1nc(NCCCN2CCOCC2)nc(Nc2ccccc2)c1[N+](=O)[O-] [SMR000219678]	2.24
CCC(=NNC(=S)Nc1cccc(C)c1)c1ccccc1	> 300
Cc1noc2c1C(c1ccc(N(C)C)cc1)C1C(=O)CC(C)(C)CC1=N2 (centres undefined) [MLS000565136]	> 300
COC(=O)C1=C(C)N(Cc2ccccc2)C(NCc2ccc(OC)cc2)=N[C@H]1c1cccc(F)c1 [MLS000829932]	> 300
Oc1ccc(N2CCN(C(=S)NCCc3ccccc3)CC2)cc1 [SMR000199335]	> 300
COc1ccc(-c2nnc3ccc(SCc4ccccc4)nn23)cc1 [3-(4-methoxyphenyl)-6-(phenylmethylsulfanyl)-[1,2,4]triazolo[4,3-b]pyridazine]	31.7
Cc1ccc2c(c1)COc1c3ccc(C(=O)O)cc3nn1-2	8.69
CCN1CCc2c(sc(NC(=O)CN3C(=O)c4ccccc4C3=O)c2C(N)=O)C1 [2-[2-[1,3-bis(oxidanylidene)isoindol-2-yl]ethanoylamino]-6-ethyl-5,7-dihydro-4H-thieno[2,3-c]pyridine-3-carboxamide;hydrochloride]	> 300
CCCCOc1ccc(C=NNC(=O)c2nnn(-c3nonc3N)c2CN2CCCCCC2)cc1 [1-(4-amino-1,2,5-oxadiazol-3-yl)-5-(1-azepanylmethyl)-N-[(4-butoxyphenyl)methylideneamino]-4-triazolecarboxamide]	55.3
COc1cccc(NC(=O)CN(C)C(=O)c2cc(-c3ccc(F)cc3)nc3ccccc23)c1	> 300
Fc1cccc(Cl)c1CSc1nnc(-c2ccncc2)o1 [2-[(2-chloro-6-fluorophenyl)methylthio]-5-pyridin-4-yl-1,3,4-oxadiazole]	9.25
O=C(Nc1sccc1C(=O)N1CCOCC1)c1cccnc1 [N-[3-[4-morpholinyl(oxo)methyl]-2-thiophenyl]-3-pyridinecarboxamide]	29.2
N#Cc1c(-c2cccs2)nc(SCc2ccc(Cl)cc2)[nH]c1=O [MLS000705749]	> 300

Structure (SMILES)	EC50 [µM]
Cc1ccc(-c2nn(-c3ccccc3)cc2CNCc2ccccc2)cc1 [MLS000672046]	> 300
OC(COc1ccc(OCC(O)CN2CCN(Cc3ccccc3)CC2)cc1)CN1CCN(Cc2ccccc2)CC1 (centres undefined) [SMR000473226]	> 300
COc1ccc(C(=O)c2sc(Nc3ccccc3)nc2C)cc1 [MLS001181792]	32.1
O=C1NCCCc2c1oc1ccc(O)cc21 [7-hydroxy-2,3,4,5-tetrahydro-[1]benzofuro[2,3-c]azepin-1-one]	2.07
O=C(Nc1ccccn1)Nc1cccs1 [MLS000093554]	> 300
COc1cccc(CN=Nc2cc(Cl)nc(C)n2)c1O [SMR000274053]	> 300
CCC(C)Nc1nc(N)c([N+](=O)[O-])c(Nc2cc(OC)ccc2OC)n1 (centres undefined) [N2-butan-2-yl-N4-(2,5-dimethoxyphenyl)-5-nitro-pyrimidine-2,4,6-triamine]	0.539
COc1ccc(/C=C2\Sc3ccc(C(=O)NCCN4CCCCCC4)cc3N(C)C2=O)cc1 [(2Z)-N-[2-(azepan-1-yl)ethyl]-2-[(4-methoxyphenyl)methylidene]-4-methyl-3-oxo-1,4-benzothiazine-6-carboxamide]	43.3
O=C(OCCN1CCOCC1)c1ccc(O)cc1 [SMR000513589]	> 300
COc1ccccc1-c1ccc(=O)n(CC(=O)NCc2ccco2)n1 [N-(furan-2-ylmethyl)-2-[3-(2-methoxyphenyl)-6-oxidanylidene-pyridazin-1-yl]ethanamide]	> 300
COc1ccc(-n2c(Cc3cccn3C)nnc2SCC(=O)NCC2CCCO2)cc1 (centres undefined) [2-[[4-(4-methoxyphenyl)-5-[(1-methylpyrrol-2-yl)methyl]-1,2,4-triazol-3-yl]sulfanyl]-N-(oxolan-2-ylmethyl)acetamide]	> 300
O=C1NC(=O)N(Cc2ccc(F)cc2)C(=O)C1=CNCCN1CCCCC1 [MLS000040945]	> 300
N#Cc1c2n(c3c(=O)[nH]cnc13)CCCC2	56.4
O=C(NCc1ccccn1)c1ccc(Cn2cc(Br)cn2)o1 [SMR000073000]	> 300
Clc1ccc(-c2nnc(-c3ccccc3)c(N3CCSCC3)n2)cc1	> 300
COc1ccc(Nc2nc(-c3ccccc3)c(C(=O)Nc3cccnc3)s2)cc1 [MLS001018742]	> 300
O=C(Nc1ccc2c(c1)OCO2)Nc1ccc(F)cc1F	> 300
CCCCC(=O)Nc1ncc(S(=O)(=O)c2ccc([N+](=O)[O-])cc2)s1 [N-[5-(4-nitrophenyl)sulfonyl-2-thiazolyl]pentanamide]	> 300
COc1ccc(C2c3c(n[nH]c3C)N=C3CC(C)(C)CC(=O)C32)cc1 (centres undefined)	28.3
CCCN(CCC)Cc1c(C(=O)NN=Cc2ccc(C)o2)nnn1-c1nonc1N [1-(4-azanyl-1,2,5-oxadiazol-3-yl)-5-[(dipropylamino)methyl]-N-[(5-methylfuran-2-yl)methylideneamino]-1,2,3-triazole-4-carboxamide]	> 300

Reference: BindingDB's records for doi:10.7270/Q2TX3CTT (Broad Institute, 2010)
